molecular target: T1, recombinant Human Phosphodiesterase B2 (PDE4B2) (Homo sapiens, UniProt Q07343); experiment: Human Phosphodiesterase B2 Radiometric Assay (yttrium silicate SPA beads, [3H]cyclic AMP); type: biochemical; conditions: recombinant human PDE4B2, radiometric SPA assay, 8 nM [3H]cyclic AMP; read-out: PDE4B2 pIC50 (converted)
Outline: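 Read-out is scintillation proximity: yttrium silicate beads (with 18 mM ZnSO4, added to stop the reaction) bind 5′AMP formed from 8 nM [3H]cAMP over 20 min. Beforehand, compound and 0.1 mg/mL enzyme were preincubated 30 min at 30 °C in pH 7.5 HEPES buffer with MgCl2, EGTA and Brij 35; pIC50 values were curve-fitted.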

T1 sequence (Q07343 1-564 isoform Q07343-2): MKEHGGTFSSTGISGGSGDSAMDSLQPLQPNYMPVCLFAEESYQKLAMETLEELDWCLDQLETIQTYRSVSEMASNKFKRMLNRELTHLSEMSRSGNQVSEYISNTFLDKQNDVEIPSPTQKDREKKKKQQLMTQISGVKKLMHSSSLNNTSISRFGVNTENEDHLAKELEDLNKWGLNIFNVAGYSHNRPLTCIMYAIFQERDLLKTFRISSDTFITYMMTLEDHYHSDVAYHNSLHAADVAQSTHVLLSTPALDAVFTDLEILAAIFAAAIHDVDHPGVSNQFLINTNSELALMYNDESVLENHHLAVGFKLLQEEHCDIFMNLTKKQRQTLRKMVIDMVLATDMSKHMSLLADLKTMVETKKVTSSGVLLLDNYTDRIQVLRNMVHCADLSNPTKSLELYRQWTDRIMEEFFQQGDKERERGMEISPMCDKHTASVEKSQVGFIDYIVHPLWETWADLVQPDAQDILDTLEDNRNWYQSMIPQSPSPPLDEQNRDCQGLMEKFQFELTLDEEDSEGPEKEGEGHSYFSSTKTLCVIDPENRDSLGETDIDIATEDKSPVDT

SMILES	IC50 [pM]
CN(Cc1cc(O)ccc1-c1cccc(-n2c(=O)n([C@H]3CC[C@@H](NCc4cn5cc(F)ccc5n4)CC3)c(=O)c3cc(F)cnc32)c1)CC1CC1 [Example 325]	2000
Cc1cccc(CN[C@H]2CC[C@@H](n3c(=O)c4cc(F)cnc4n(-c4cccc(-c5ccc(O)cc5CN5CCOCC5)c4)c3=O)CC2)n1 [Example 284, 6-fluoro-1-{4′-hydroxy-2′-(morpholin-4-ylmethyl)biphenyl-3-yl]-3-(cis-4-{[(6-methylpyridin-2-yl)methyl]amino}cyclohexyl)pyrido [2,3-d]pyrimidine-2,4(1H,3H)-dione]	79.4
Cc1cccc(C(=O)N[C@H]2CC[C@@H](n3c(=O)c4cc(F)cnc4n(-c4cccc(-c5ccc(CN6CCN(C(C)C)CC6)cc5)c4)c3=O)CC2)n1 [Example 242, N-{cis-4-[6-fluoro-1-{4′-[(4-isopropylpiperazin-1-yl)methyl]biphenyl-3-yl}-2,4-dioxo-1,4-di-hydropyrido[2,3-d]pyrimidin-3(2H)-yl]cyclohexyl}-6-methyl-pyridine-2-carboxamide]	6.31
O=C(N[C@H]1CC[C@@H](n2c(=O)c3cc(F)cnc3n(-c3cccc(-c4ccccc4CN4CCOCC4)c3)c2=O)CC1)c1cn2cc(F)ccc2n1 [Example 19, 6-fluoro-N-{cis-4-[6-fluoro-1-[2′-(morpholin-4-ylmethyl)biphenyl-3-yl]-2,4-dioxo-1,4-dihydropyrido[2,3-d]pyrimidin-3(2H)-yl]cyclohexyl}imidazo[1,2-a]pyridine-2-carboxamide.]	3.16
CCCCc1ccc(C(=O)N[C@H]2CC[C@@H](n3c(=O)c4cc(F)cnc4n(-c4cccc(-c5ccc(CN6C[C@@H](C)N[C@@H](C)C6)cc5)c4)c3=O)CC2)nc1 [Example 302, 5-butyl-N-{cis-4-[1-(4′-{[(3R,5S)-3,5-dimethylpiperazin-1-yl]methyl}biphenyl-3-yl)-6-fluoro-2,4-dioxo-1,4-dihydropyrido[2,3-d]pyrimidin-3(2H)-yl]cyclohexyl} pyridine-2-carboxamide]	100
O=c1c2cc(F)cnc2n(-c2cccc(-c3ccc(CN4CCCOCC4)cc3)c2)c(=O)n1[C@H]1CC[C@@H](N(Cc2cn3cc(F)ccc3n2)Cc2cn3cc(F)ccc3n2)CC1 [Example 339, 3-(cis-4-{bis[(6-fluoroimidazo[1,2-a]pyridin-2-yl)methyl]amino}cyclohexyl)-6-fluoro-1-[4′-(1,4-oxazepan-4-ylmethyl)biphenyl-3-yl]pyrido[2,3-d]pyrimidine-2,4(1H,3H)-dione]	39.8
O=CN1CCCN(Cc2cc(O)ccc2-c2cccc(-n3c(=O)n([C@H]4CC[C@@H](NCc5cn6cc(F)ccc6n5)CC4)c(=O)c4cc(F)cnc43)c2)CC1 [Example 376, 4-({3′-[6-fluoro-3-(cis-4-{[(6-fluoroimidazo[1,2-a]pyridin-2-yl)methyl]amino}cyclohexyl)-2,4-dioxo-3,4-dihydropyrido[2,3-d]pyrimidin-1(2H)-yl]-4-hydroxybiphenyl-2-yl}methyl)-1,4-diazepane-1-carbaldehyde]	39.8
CN(C)Cc1ccc(-c2cccc(-n3c(=O)n([C@H]4CC[C@@H](NCc5cn6ccccc6n5)CC4)c(=O)c4cc(F)cnc43)c2)cc1 [Example 343, 1-{4′-[(dimethylamino)methyl]biphenyl-3-yl}-6-fluoro-3-{cis-4-[(imidazo[1,2-a]pyridin-2-ylmethyl)amino]cyclohexyl}pyrido[2,3-d]pyrimidine-2,4(1H,3H)-dione]	2000
CC(C)N1CCN(Cc2ccc(-c3cccc(-n4c(=O)n([C@H]5CC[C@@H](NC(=O)CC6CCOCC6)CC5)c(=O)c5cc(F)cnc54)c3)cc2)CC1 [Example 234, N-{cis-4-[6-fluoro-1-{4′-[(4-isopropylpiperazin-1-yl)methyl]biphenyl-3-yl}-2,4-dioxo-1,4-di-hydropyrido[2,3-d]pyrimidin-3(2H)-yl]cyclohexyl}-2-(tetrahydro-2H-pyran-4-yl)acetamide]	100
CN(C)CCN(C)Cc1ccc(-c2cccc(-n3c(=O)n([C@H]4CC[C@@H](NC(=O)C5(N(C)C)CC5)CC4)c(=O)c4cc(F)cnc43)c2)cc1 [Example 110, 1-(dimethylamino)-N-{cis-4-[1-(4′-{[[2-(dimethylamino)ethyl](methyl)amino]methyl}biphenyl-3-yl)-6-fluoro-2,4-dioxo-1,4-dihydropyrido[2,3-d]pyrimidin-3(2H)-yl]cyclohexyl}cyclopropanecarboxamide]	7.94
O=C(N[C@H]1CC[C@@H](n2c(=O)c3cc(F)cnc3n(-c3cccc(-c4ccc(CN5CCCNCC5)cc4)c3)c2=O)CC1)c1cc(=O)c2ccccc2[nH]1 [Example 355, N-{cis-4-[1-[4′-(1,4-diazepan-1-ylmethyl)biphenyl-3-yl]-6-fluoro-2,4-dioxo-1,4-dihydropyrido[2,3-d]pyrimidin-3(2H)-yl]cyclohexyl}-4-oxo-1,4-dihydroquinoline-2-carboxamide]	50.1
O=C(N[C@H]1CC[C@@H](n2c(=O)c3cc(F)cnc3n(-c3cccc(-c4ccc(CN5CCCOCC5)cc4)c3)c2=O)CC1)C1CC1 [Example 306, N-{cis-4-[6-fluoro-1-[4′-(1,4-oxazepan-4-ylmethyl)biphenyl-3-yl]-2,4-dioxo-1,4-dihydropyrido[2,3-d]pyrimidin-3(2H)-yl]cyclohexyl} cyclopropanecarboxamide]	251
CC(C)N(CCO)Cc1ccc(-c2cccc(-n3c(=O)n([C@H]4CC[C@@H](NC(=O)C5(N(C)C)CC5)CC4)c(=O)c4cc(F)cnc43)c2)cc1 [Example 126, 1-(dimethylamino)-N-{cis-4-[6-fluoro-1-(4′-{[(2-hydroxyethyl)(isopropyl)amino]methyl}biphenyl-3-yl)-2,4-dioxo-1,4-dihydropyrido[2,3-d]pyrimidin-3(2H)-yl]cyclohexyl}cyclopropane-carboxamide]	63.1
O=c1c2cc(F)cnc2n(-c2cccc(-c3cc(O)ccc3CN3CCOCC3)c2)c(=O)n1[C@H]1CC[C@@H](NCc2cn3cc(F)ccc3n2)CC1 [Example 337, 6-fluoro-3-(cis-4-{[(6-fluoroimidazo[1,2-a]pyridin-2-yl)methyl]amino}cyclohexyl)-1-[5′-hydroxy-2′-(morpholin-4-ylmethyl)biphenyl-3-yl]pyrido[2,3-d]pyrimidine-2,4(1H,3H)-dione]	100
O=c1c2cc(F)cnc2n(-c2cccc(-c3ccc(O)cc3CN3CCCOCC3)c2)c(=O)n1[C@H]1CC[C@@H](NCc2ncc3ccccn23)CC1 [Example 371, 6-fluoro-1-[4′-hydroxy-2′-(1,4-oxazepan-4-ylmethyl)biphenyl-3-yl]-3-{cis-4-[(imidazo[1,5-a]pyridin-3-ylmethyl)amino]cyclohexyl}pyrido[2,3-d]pyrimidine-2,4(1H,3H)-dione]	398
Cc1cnc(C(=O)N[C@H]2CC[C@@H](n3c(=O)c4cc(F)cnc4n(-c4cccc(-c5ccc(CN6C[C@@H](C)N[C@@H](C)C6)cc5)c4)c3=O)CC2)cn1 [Example 361, N-{cis-4-[1-(4′-{[(3R,5S)-3,5-dimethylpiperazin-1-yl]methyl}biphenyl-3-yl)-6-fluoro-2,4-dioxo-1,4-dihydropyrido[2,3-d]pyrimidin-3(2H)-yl]cyclohexyl}-5-methylpyrazine-2-carboxamide]	200

molecular target: T1, recombinant Human Phosphodiesterase B2 (PDE4B2); experiment: Human Phosphodiesterase B2 Alpha Screen Assay; type: biochemical; conditions: Alpha Screen cAMP kit; 15 min preincubation, 60 min reaction at room temperature; Xlfit model 205; read-out: PDE4B2 pIC50 (converted)
Experimental: Human Phosphodiesterase B2 Alpha Screen Assay
The assay uses recombinant Human Phosphodiesterase B2 (PDE4B2) produced in house (PrAZL0133), stored at −20° C. The substrate uses cAMP, part of the Alpha Screen cAMP kit (Perkin Elmer, Cat# 6760625M), stored at 4° C. The Alpha Screen kit also includes biotinylated cAMP, acceptor and donor beads.
The assay additions were as follows: Test compounds and controls were added to white 384-well flat-bottom plates (Greiner, Cat#781075), 0.2 μl in 100% DMSO, followed by 10 μl PDE4B2 in reaction buffer. The reaction buffer constitution was: 50 mM Tris (pH 7.5), 8.3 mM MgCl2, 1.7 mM EGTA and 0.01% (w/v) Brij®35. The enzyme and the compounds were incubated at room temperature for 15 minutes. Then 10 μl cAMP in reaction buffer was added. The assay was stopped after 60 minutes incubation at room temperature by adding 10 μl acceptor beads in detection buffer with 40 mM EDTA. The detection buffer constitution was: 5 mM Tris (pH 7.5), 0.1% (w/v) BSA and 0.1% (v/v) Tween 20. This addition followed by an addition of 10 μl donor beads in detection buffer, with biotinylated cAMP. The plates were then incubated, dark at room temperature, for 5 hours followed by measurement on a Fusion™-α analyser. pIC50 values (presented in Table 14) were determined using Xlfit curve fitting using model 205.

SMILES	IC50 [pM]
O=C(N[C@H]1CC[C@@H](n2c(=O)c3cc(F)cnc3n(Cc3ccc(F)cc3)c2=O)CC1)c1cn2ccccc2n1 [Example 9, N-{cis-4-[6-fluoro-1-(4-fluorobenzyl)-2,4-dioxo-1,4-dihydropyrido[2,3-d]pyrimidin-3(2H)-yl]cyclohexyl}imidazo[1,2-a]pyridine-2-carboxamide]	3160
O=C(N[C@H]1CC[C@@H](n2c(=O)c3cc(F)cnc3n(C3CCCC3)c2=O)CC1)c1cn2ccccc2n1 [Example 7, N-[cis-4-(1-cyclopentyl-6-fluoro-2,4-dioxo-1,4-dihydropyrido[2,3-d]pyrimidin-3(2H)-yl)cyclohexyl]imidazo[1,2-a]pyridine-2-carboxamide]	631
